According to patent US10106797B2, “Methods for suppressing adipocyte differentiation” (SEOUL NATIONAL UNIVERSITY R&DB FOUNDATION, priority 2013, dated 2018):

Columns and labels:
[1] = test system: PPAR-v; assay: Quantitative RT-PCR of PPAR-v mRNA in 3T3-L1 cells; type: cell-based, mouse
Procedure: (§1) HEK293 (human embryonic kidney) cells were obtained from the American Type Culture Collection (Manassas, Va.). 3T3-L1 and 3T3-F442A preadipocytes were kindly given by Dr. Jae-Woo Kim (Yonsei University, Seoul, Korea). Cells were cultured in DMEM supplemented with 10% fetal bovine serum (FBS). Differentiation of 3T3-L1 cells was induced with 1 μM dexamethasone, 500 μM 3-isobutyl-a-methylxanthine, and 5 μg/ml of insulin (DMI), which is designated DMI. From 2 to 8 days after DMI treatment, cells were maintained in DMEM containing 10% FBS and 1 μg/ml of insulin and the medium was changed every other day. Adipocyte differentiation of hADSCs was induced with DMI and 200 μM indomethacin in α-MEM supplemented with 10% FBS. Cells were incubated in 5% CO2 and 20% O2 at 37° C.
(§2) Total RNAs were isolated from cultured cells using TRIzol® (Invitrogen). The EasyScript™ cDNA Synthesis Kit (Applied Biological Materials Inc., Richmond, Canada) was used to synthesize cDNAs. The level of each cDNA was relatively quantified by being divided by the 18S rRNA level in the corresponding sample.

[2] = test system: FABP4; assay: Quantitative RT-PCR of FABP4 mRNA in 3T3-L1 cells; type: cell-based, mouse
Procedure: as §1, §2

[3] = test system: PPAR-v; assay: Western blotting of PPAR-v protein expression in 3T3-L1 cells; type: cell-based, mouse
Procedure: as §1
(§3) Proteins in cell lysates were electrophoresed on SDS-polyacrylamide gels and transferred to Immobilon-P membranes (Millipore, Billerica, Mass.). Membranes were preincubated with 5% skim milk in TTBS (Tris-buffered saline containing 0.1% Tween 20) for 30 min and incubated overnight with primary antibody diluted 1:500 to 1:3000 in the TTBS. The membranes were further incubated with a horseradish peroxidase conjugated secondary antibody for 1 h and visualized using Pierce ECL Plus western blotting substrate according to the manufacturer's instruction (Thermo Fisher Scientific, Waltham, Mass.).

[4] = test system: C/EBP-β; assay: Quantitative RT-PCR of C/EBP-β mRNA in 3T3-L1 cells; type: cell-based, mouse
Procedure: as §1, §2

[5] = test system: 3T3-L1 cells; assay: Adipocyte differentiation of 3T3-L1 cells, Oil-red O staining; type: cell-based, mouse; conditions: for adipose differentiation: amount dependent
Procedure: as §1
Adipocytes were fixed with 3.7% of formalin and stained with 0.3% Oil-red-O solution (Sigma-Aldrich) dissolved in isopropanol. 0.5% Oil-red-O (Sigma-Aldrich) was dissolved in isopropanol. Oil-red-O stock solution and H2O were mixed at a ratio of 6:4 and filtered. Then 60% Oil-red-O stock solution was incubated with the cells for 1 h and washed with distilled water and scanned for image.

[6] = test system: CD36; assay: Quantitative RT-PCR of CD36 mRNA in 3T3-L1 cells; type: cell-based, mouse
Procedure: as §1, §2

[7] = test system: C/EBP-β; assay: Western blotting of C/EBP-β protein expression in 3T3-L1 cells; type: cell-based, mouse; conditions: FIG. 1E
Procedure: as §1, §3

[8] = test system: PPAR-v; assay: Ubiquitination of PPAR-v, western blotting; type: cell-based; conditions: neddylation inhibited using siNEDD8; FIG. 3E
Procedure: as §3
To precipitate HA-tagged proteins, transfected cells were lysed in a buffer containing 5 mM EDTA, 50 mM Tris-Cl, 100 mM NaCl, 0.1% NP-40, and the protease inhibitor cocktail (Sigma-Aldrich). Cell lysates (1 mg proteins) were incubated with EZview™ anti-HA affinity beads sequentially incubated with a primary antibody (10 μg/mL) and protein A/G-Sepharose beads (GE Healthcare, Uppsala, Sweden) at 4° C. for 4 h. Pull down proteins were eluted in a 2×SDS denaturing buffer and subjected to Western blotting as described above. For HA-bead immunoprecipitation, 1 mg of protein was incubated with 10 ul of HA-bead at 4° C. for 4 h and washed. Then proteins were eluted in a 2×SDS denaturing buffer and electrophoresed in a SDS-PAGE gel and subjected to Western blotting as described above.

[9] = 3T3-L1 cells treated with 0.5 μM MLN4924 before the differentiation, 0, 2, 4, 6, 8 days, FIG. 2B
[10] = siNEDD8 knock down, PCR at 0, 2, 4, 6, and 8 days after start of differentiation, FIG. 1F
[11] = knock down after the cells were induced to differentiation, FIG. 1D

Compound: NS(=O)(=O)OC[C@@H]1C[C@@H](n2ccc3c(N[C@H]4CCc5ccccc54)ncnc32)C[C@@H]1O [MLN4924, reference compound]
- PPAR-v at the mRNA level [1, 9]: decreased
- FABP4 at the mRNA level [2, 9]: decreased
- expression of PPAR-v protein ([3]; 3T3-L1 cells treated with MLN4924 after the differentiation was induced, FIG. 2A): suppresses
- C/EBP-β at the mRNA level [4, 9]: decreased
- differentiation of 3T3L1 cells into adipocytes ([5]; MLN4924 0.1 and 0.5 μM, before and after differentiation was induced, Oil-red O, FIG. 2A): suppressed
- CD36 at the mRNA level [6, 9]: decreased

Compound: COc1ccc(C2=NC(c3ccc(Cl)cc3)C(c3ccc(Cl)cc3)N2C(=O)N2CCNC(=O)C2)c(OC(C)C)c1 (stereo not drawn) [nutlin-3, 4-[4,5-Bis(4-chlorophenyl)-2-(2-isopropoxy-4-methoxy-phenyl)-4,5-dihydro-imidazole-1-carbonyl]-piperazin-2-one, reference compound]
- adipose differentiation ([5]; nutlin-3 10 and 20 μM, before and after differentiation was induced, FIG. 5D): suppressed

Compound: siMDM2: MDM2 siRNA used in 3T3-L1; probably the mouse one, SEQ ID NO: 8, 5′-GCAAUGAUCUACAGAAAUUUAGUGG-3′ (other strand not given here)
- adipose differentiation ([5]; 3T3-L1 transfected with siMDM2 10, 20 or 50 nM, differentiation induced after 2 days, FIG. 5C): suppressed

Compound: siNEDD8: siRNA against NEDD8; Table 1 siNEDD8 is human, SEQ ID NO: 1; text does not say which sequence was used in 3T3-L1 (CAGACAAGGUGGAGCGAAUCAAGGA; other strand not given here)
- mRNA expression level of PPAR-v [1, 10]: decreased
- mRNA expression level of FABP4 [2, 10]: decreased
- expression of C/EBP-β ([7]; 0, 2, 4, 8, 16, 24 h after the initiation of differentiation): decreased
- expression of C/EBP-β ([7]; knock down before induction, 0, 2, 4, 6 and 8 days during differentiation, compared to control, time dependent): decreased
- expression of PPAR-v [3, 11]: suppressed
- expression of PPAR-v ([3]; knock down before induction, 0, 2, 4, 6 and 8 days during differentiation, compared to control, time dependent, FIG. 1E): decreased
- mRNA expression level of C/EBP-β [4, 10]: decreased
- adipogenesis [5, 11]: suppressed
- mRNA expression level of CD36 [6, 10]: decreased
- ubiquitination of PPAR-v [8]: increased
